# Measured values as given in PubChem BioAssay AID2060625 (Molecular Pharmacology Branch, DTP, NCI, 2025).
# Tested on: 186277-243-T-J2-PDC spheroids with HUVEC/MSC, viability
# Experiment: Anticancer human tumor 186277-243-T-J2-PDC patient-derived colon adenocarcinoma cell line growth inhibition [CLK]
# Settings: second compound 1 µM; first compound 10 µM; hits give low values
# Method in brief: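 Patient-derived tumor cells grown as complex spheroids with HUVEC endothelial cells and mesenchymal stem cells, treated with drug combinations. Concentrations descend in half-log steps from near clinical Cmax, or from 10 microM if Cmax unknown.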
# 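Also: compound exposure lasted seven days before readout; 100% = DMSO vehicle control wells.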
row,SMILES,"viability, T/C [%]"
1,O=C(c1cc(Cc2n[nH]c(=O)c3ccccc23)ccc1F)N1CCN(C(=O)C2CC2)CC1 + CN1CCN(c2cc(C(=O)Nc3cc4cc(-c5cnn(C)c5)ccc4cn3)ccn2)CC1,0.32

# Same assay, conditions: second compound 3.16 µM; first compound 0.00316 µM; hits give low values
row,SMILES,"viability, T/C [%]"
1,CCc1c2c(nc3ccc(O)cc13)-c1cc3c(c(=O)n1C2)COC(=O)[C@]3(O)CC + CN1CCN(c2cc(C(=O)Nc3cc4cc(-c5cnn(C)c5)ccc4cn3)ccn2)CC1,0.95

# Same assay, conditions: second compound 3.16 µM; first compound 0.01 µM; hits give low values
row,SMILES,"viability, T/C [%]"
1,CCc1c2c(nc3ccc(O)cc13)-c1cc3c(c(=O)n1C2)COC(=O)[C@]3(O)CC + CN1CCN(c2cc(C(=O)Nc3cc4cc(-c5cnn(C)c5)ccc4cn3)ccn2)CC1,2.49

# Same assay, conditions: second compound 3.16 µM; first compound 0.0316 µM; hits give low values
row,SMILES,"viability, T/C [%]"
1,CCc1c2c(nc3ccc(O)cc13)-c1cc3c(c(=O)n1C2)COC(=O)[C@]3(O)CC + CN1CCN(c2cc(C(=O)Nc3cc4cc(-c5cnn(C)c5)ccc4cn3)ccn2)CC1,1.5
2,CC1COCCN1c1cc(C2(S(C)(=N)=O)CC2)nc(-c2ccnc3[nH]ccc23)n1 (centres undefined) + CNC(=O)c1ccc(Nc2nc(OC3CCCC3)c3c(-c4ccc5nc(C)oc5c4)c[nH]c3n2)c(OC)c1,33.9
3,CCCS(=O)(=O)Nc1ccc(F)c(C(=O)c2c[nH]c3ncc(-c4ccc(Cl)cc4)cc23)c1F + CNC(=O)c1ccc(Nc2nc(OC3CCCC3)c3c(-c4ccc5nc(C)oc5c4)c[nH]c3n2)c(OC)c1,33.2
4,O=C(c1cc(Cc2n[nH]c(=O)c3ccccc23)ccc1F)N1CCN(C(=O)C2CC2)CC1 + CN1CCN(c2cc(C(=O)Nc3cc4cc(-c5cnn(C)c5)ccc4cn3)ccn2)CC1,2.76

# Same assay, conditions: second compound 3.16 µM; first compound 0.1 µM; hits give low values
row,SMILES,"viability, T/C [%]"
1,CCc1c2c(nc3ccc(O)cc13)-c1cc3c(c(=O)n1C2)COC(=O)[C@]3(O)CC + CN1CCN(c2cc(C(=O)Nc3cc4cc(-c5cnn(C)c5)ccc4cn3)ccn2)CC1,1.25
2,CC1COCCN1c1cc(C2(S(C)(=N)=O)CC2)nc(-c2ccnc3[nH]ccc23)n1 (centres undefined) + CNC(=O)c1ccc(Nc2nc(OC3CCCC3)c3c(-c4ccc5nc(C)oc5c4)c[nH]c3n2)c(OC)c1,31.6
3,CCCS(=O)(=O)Nc1ccc(F)c(C(=O)c2c[nH]c3ncc(-c4ccc(Cl)cc4)cc23)c1F + CNC(=O)c1ccc(Nc2nc(OC3CCCC3)c3c(-c4ccc5nc(C)oc5c4)c[nH]c3n2)c(OC)c1,37.9
4,O=C(c1cc(Cc2n[nH]c(=O)c3ccccc23)ccc1F)N1CCN(C(=O)C2CC2)CC1 + CN1CCN(c2cc(C(=O)Nc3cc4cc(-c5cnn(C)c5)ccc4cn3)ccn2)CC1,1.64

# Same assay, conditions: second compound 3.16 µM; first compound 0.316 µM; hits give low values
row,SMILES,"viability, T/C [%]"
1,CCc1c2c(nc3ccc(O)cc13)-c1cc3c(c(=O)n1C2)COC(=O)[C@]3(O)CC + CN1CCN(c2cc(C(=O)Nc3cc4cc(-c5cnn(C)c5)ccc4cn3)ccn2)CC1,2.1
2,CC1COCCN1c1cc(C2(S(C)(=N)=O)CC2)nc(-c2ccnc3[nH]ccc23)n1 (centres undefined) + CNC(=O)c1ccc(Nc2nc(OC3CCCC3)c3c(-c4ccc5nc(C)oc5c4)c[nH]c3n2)c(OC)c1,28.9
3,CCCS(=O)(=O)Nc1ccc(F)c(C(=O)c2c[nH]c3ncc(-c4ccc(Cl)cc4)cc23)c1F + CNC(=O)c1ccc(Nc2nc(OC3CCCC3)c3c(-c4ccc5nc(C)oc5c4)c[nH]c3n2)c(OC)c1,37.9
4,O=C(c1cc(Cc2n[nH]c(=O)c3ccccc23)ccc1F)N1CCN(C(=O)C2CC2)CC1 + CN1CCN(c2cc(C(=O)Nc3cc4cc(-c5cnn(C)c5)ccc4cn3)ccn2)CC1,1.3

# Same assay, conditions: second compound 3.16 µM; first compound 1 µM; hits give low values
row,SMILES,"viability, T/C [%]"
1,CCc1c2c(nc3ccc(O)cc13)-c1cc3c(c(=O)n1C2)COC(=O)[C@]3(O)CC + CN1CCN(c2cc(C(=O)Nc3cc4cc(-c5cnn(C)c5)ccc4cn3)ccn2)CC1,1.56
2,CC1COCCN1c1cc(C2(S(C)(=N)=O)CC2)nc(-c2ccnc3[nH]ccc23)n1 (centres undefined) + CNC(=O)c1ccc(Nc2nc(OC3CCCC3)c3c(-c4ccc5nc(C)oc5c4)c[nH]c3n2)c(OC)c1,21.6
3,CCCS(=O)(=O)Nc1ccc(F)c(C(=O)c2c[nH]c3ncc(-c4ccc(Cl)cc4)cc23)c1F + CNC(=O)c1ccc(Nc2nc(OC3CCCC3)c3c(-c4ccc5nc(C)oc5c4)c[nH]c3n2)c(OC)c1,37.1
4,O=C(c1cc(Cc2n[nH]c(=O)c3ccccc23)ccc1F)N1CCN(C(=O)C2CC2)CC1 + CN1CCN(c2cc(C(=O)Nc3cc4cc(-c5cnn(C)c5)ccc4cn3)ccn2)CC1,1.29

# Same assay, conditions: second compound 3.16 µM; first compound 3.16 µM; hits give low values
row,SMILES,"viability, T/C [%]"
1,CC1COCCN1c1cc(C2(S(C)(=N)=O)CC2)nc(-c2ccnc3[nH]ccc23)n1 (centres undefined) + CNC(=O)c1ccc(Nc2nc(OC3CCCC3)c3c(-c4ccc5nc(C)oc5c4)c[nH]c3n2)c(OC)c1,12.2
2,CCCS(=O)(=O)Nc1ccc(F)c(C(=O)c2c[nH]c3ncc(-c4ccc(Cl)cc4)cc23)c1F + CNC(=O)c1ccc(Nc2nc(OC3CCCC3)c3c(-c4ccc5nc(C)oc5c4)c[nH]c3n2)c(OC)c1,33.3
3,O=C(c1cc(Cc2n[nH]c(=O)c3ccccc23)ccc1F)N1CCN(C(=O)C2CC2)CC1 + CN1CCN(c2cc(C(=O)Nc3cc4cc(-c5cnn(C)c5)ccc4cn3)ccn2)CC1,1.16

# Same assay, conditions: second compound 3.16 µM; first compound 10 µM; hits give low values
row,SMILES,"viability, T/C [%]"
1,CC1COCCN1c1cc(C2(S(C)(=N)=O)CC2)nc(-c2ccnc3[nH]ccc23)n1 (centres undefined) + CNC(=O)c1ccc(Nc2nc(OC3CCCC3)c3c(-c4ccc5nc(C)oc5c4)c[nH]c3n2)c(OC)c1,5.1
2,CCCS(=O)(=O)Nc1ccc(F)c(C(=O)c2c[nH]c3ncc(-c4ccc(Cl)cc4)cc23)c1F + CNC(=O)c1ccc(Nc2nc(OC3CCCC3)c3c(-c4ccc5nc(C)oc5c4)c[nH]c3n2)c(OC)c1,21.6
3,O=C(c1cc(Cc2n[nH]c(=O)c3ccccc23)ccc1F)N1CCN(C(=O)C2CC2)CC1 + CN1CCN(c2cc(C(=O)Nc3cc4cc(-c5cnn(C)c5)ccc4cn3)ccn2)CC1,1.05

# Same assay, conditions: second compound 10 µM; first compound 0.00316 µM; hits give low values
row,SMILES,"viability, T/C [%]"
1,CCc1c2c(nc3ccc(O)cc13)-c1cc3c(c(=O)n1C2)COC(=O)[C@]3(O)CC + CN1CCN(c2cc(C(=O)Nc3cc4cc(-c5cnn(C)c5)ccc4cn3)ccn2)CC1,0.8

# Same assay, conditions: second compound 10 µM; first compound 0.01 µM; hits give low values
row,SMILES,"viability, T/C [%]"
1,CCc1c2c(nc3ccc(O)cc13)-c1cc3c(c(=O)n1C2)COC(=O)[C@]3(O)CC + CN1CCN(c2cc(C(=O)Nc3cc4cc(-c5cnn(C)c5)ccc4cn3)ccn2)CC1,1.71

# Same assay, conditions: second compound 10 µM; first compound 0.0316 µM; hits give low values
row,SMILES,"viability, T/C [%]"
1,CCc1c2c(nc3ccc(O)cc13)-c1cc3c(c(=O)n1C2)COC(=O)[C@]3(O)CC + CN1CCN(c2cc(C(=O)Nc3cc4cc(-c5cnn(C)c5)ccc4cn3)ccn2)CC1,0.41
2,CC1COCCN1c1cc(C2(S(C)(=N)=O)CC2)nc(-c2ccnc3[nH]ccc23)n1 (centres undefined) + CNC(=O)c1ccc(Nc2nc(OC3CCCC3)c3c(-c4ccc5nc(C)oc5c4)c[nH]c3n2)c(OC)c1,34.5
3,CCCS(=O)(=O)Nc1ccc(F)c(C(=O)c2c[nH]c3ncc(-c4ccc(Cl)cc4)cc23)c1F + CNC(=O)c1ccc(Nc2nc(OC3CCCC3)c3c(-c4ccc5nc(C)oc5c4)c[nH]c3n2)c(OC)c1,37.4
4,O=C(c1cc(Cc2n[nH]c(=O)c3ccccc23)ccc1F)N1CCN(C(=O)C2CC2)CC1 + CN1CCN(c2cc(C(=O)Nc3cc4cc(-c5cnn(C)c5)ccc4cn3)ccn2)CC1,1.59

# Same assay, conditions: second compound 10 µM; first compound 0.1 µM; hits give low values
row,SMILES,"viability, T/C [%]"
1,CCc1c2c(nc3ccc(O)cc13)-c1cc3c(c(=O)n1C2)COC(=O)[C@]3(O)CC + CN1CCN(c2cc(C(=O)Nc3cc4cc(-c5cnn(C)c5)ccc4cn3)ccn2)CC1,1.3
2,CC1COCCN1c1cc(C2(S(C)(=N)=O)CC2)nc(-c2ccnc3[nH]ccc23)n1 (centres undefined) + CNC(=O)c1ccc(Nc2nc(OC3CCCC3)c3c(-c4ccc5nc(C)oc5c4)c[nH]c3n2)c(OC)c1,35.6
3,CCCS(=O)(=O)Nc1ccc(F)c(C(=O)c2c[nH]c3ncc(-c4ccc(Cl)cc4)cc23)c1F + CNC(=O)c1ccc(Nc2nc(OC3CCCC3)c3c(-c4ccc5nc(C)oc5c4)c[nH]c3n2)c(OC)c1,39.2
4,O=C(c1cc(Cc2n[nH]c(=O)c3ccccc23)ccc1F)N1CCN(C(=O)C2CC2)CC1 + CN1CCN(c2cc(C(=O)Nc3cc4cc(-c5cnn(C)c5)ccc4cn3)ccn2)CC1,0.89

# Same assay, conditions: second compound 10 µM; first compound 0.316 µM; hits give low values
row,SMILES,"viability, T/C [%]"
1,CCc1c2c(nc3ccc(O)cc13)-c1cc3c(c(=O)n1C2)COC(=O)[C@]3(O)CC + CN1CCN(c2cc(C(=O)Nc3cc4cc(-c5cnn(C)c5)ccc4cn3)ccn2)CC1,0.67
2,CC1COCCN1c1cc(C2(S(C)(=N)=O)CC2)nc(-c2ccnc3[nH]ccc23)n1 (centres undefined) + CNC(=O)c1ccc(Nc2nc(OC3CCCC3)c3c(-c4ccc5nc(C)oc5c4)c[nH]c3n2)c(OC)c1,33
3,CCCS(=O)(=O)Nc1ccc(F)c(C(=O)c2c[nH]c3ncc(-c4ccc(Cl)cc4)cc23)c1F + CNC(=O)c1ccc(Nc2nc(OC3CCCC3)c3c(-c4ccc5nc(C)oc5c4)c[nH]c3n2)c(OC)c1,36.6
4,O=C(c1cc(Cc2n[nH]c(=O)c3ccccc23)ccc1F)N1CCN(C(=O)C2CC2)CC1 + CN1CCN(c2cc(C(=O)Nc3cc4cc(-c5cnn(C)c5)ccc4cn3)ccn2)CC1,0.83

# Same assay, conditions: second compound 10 µM; first compound 1 µM; hits give low values
row,SMILES,"viability, T/C [%]"
1,CCc1c2c(nc3ccc(O)cc13)-c1cc3c(c(=O)n1C2)COC(=O)[C@]3(O)CC + CN1CCN(c2cc(C(=O)Nc3cc4cc(-c5cnn(C)c5)ccc4cn3)ccn2)CC1,0.26
2,CC1COCCN1c1cc(C2(S(C)(=N)=O)CC2)nc(-c2ccnc3[nH]ccc23)n1 (centres undefined) + CNC(=O)c1ccc(Nc2nc(OC3CCCC3)c3c(-c4ccc5nc(C)oc5c4)c[nH]c3n2)c(OC)c1,24.9
3,CCCS(=O)(=O)Nc1ccc(F)c(C(=O)c2c[nH]c3ncc(-c4ccc(Cl)cc4)cc23)c1F + CNC(=O)c1ccc(Nc2nc(OC3CCCC3)c3c(-c4ccc5nc(C)oc5c4)c[nH]c3n2)c(OC)c1,34.8
4,O=C(c1cc(Cc2n[nH]c(=O)c3ccccc23)ccc1F)N1CCN(C(=O)C2CC2)CC1 + CN1CCN(c2cc(C(=O)Nc3cc4cc(-c5cnn(C)c5)ccc4cn3)ccn2)CC1,0.77

# Same assay, conditions: second compound 10 µM; first compound 3.16 µM; hits give low values
row,SMILES,"viability, T/C [%]"
1,CC1COCCN1c1cc(C2(S(C)(=N)=O)CC2)nc(-c2ccnc3[nH]ccc23)n1 (centres undefined) + CNC(=O)c1ccc(Nc2nc(OC3CCCC3)c3c(-c4ccc5nc(C)oc5c4)c[nH]c3n2)c(OC)c1,13
2,CCCS(=O)(=O)Nc1ccc(F)c(C(=O)c2c[nH]c3ncc(-c4ccc(Cl)cc4)cc23)c1F + CNC(=O)c1ccc(Nc2nc(OC3CCCC3)c3c(-c4ccc5nc(C)oc5c4)c[nH]c3n2)c(OC)c1,31.6
3,O=C(c1cc(Cc2n[nH]c(=O)c3ccccc23)ccc1F)N1CCN(C(=O)C2CC2)CC1 + CN1CCN(c2cc(C(=O)Nc3cc4cc(-c5cnn(C)c5)ccc4cn3)ccn2)CC1,1.1

# Same assay, conditions: second compound 10 µM; first compound 10 µM; hits give low values
row,SMILES,"viability, T/C [%]"
1,CC1COCCN1c1cc(C2(S(C)(=N)=O)CC2)nc(-c2ccnc3[nH]ccc23)n1 (centres undefined) + CNC(=O)c1ccc(Nc2nc(OC3CCCC3)c3c(-c4ccc5nc(C)oc5c4)c[nH]c3n2)c(OC)c1,7.43
2,CCCS(=O)(=O)Nc1ccc(F)c(C(=O)c2c[nH]c3ncc(-c4ccc(Cl)cc4)cc23)c1F + CNC(=O)c1ccc(Nc2nc(OC3CCCC3)c3c(-c4ccc5nc(C)oc5c4)c[nH]c3n2)c(OC)c1,24.5
3,O=C(c1cc(Cc2n[nH]c(=O)c3ccccc23)ccc1F)N1CCN(C(=O)C2CC2)CC1 + CN1CCN(c2cc(C(=O)Nc3cc4cc(-c5cnn(C)c5)ccc4cn3)ccn2)CC1,0.59
